Read-outs that look alike come from different tables or passages of the source.
Key:
NDM-1 = NDM-1 (Klebsiella pneumoniae, UniProt C7C422); experiment: biochemical; type: biochemical; conditions: read-out: NDM-1 IC50
IMP-1 = IMP-1 (Serratia marcescens, UniProt P52699); experiment: biochemical; type: biochemical; conditions: read-out: IMP-1 IC50
VIM-1 = VIM-1 (Pseudomonas aeruginosa (strain ATCC 15692 / DSM 22644 / CIP 104116 / JCM 14847 / LMG 12228 / 1C / PRS 101 / PAO1), UniProt A0A0F7KYQ8); experiment: Enzyme activity: determination of IC50, fluorescence assay with CCF2-FA substrate (VIM-1); type: biochemical
Experimental: Enzyme Activity: Determination of IC50
The Class B enzyme activities were measured in the presence of the test inhibitor in a fluorescence assay against a commercially available substrate consisting of a cephalosporin core linking 7-hydroxycoumarin to fluorescein (CCF2-FA). The enzyme (NDM-1, IMP-1 or VIM-1) and the substrate were diluted in 100 mM KH2PO4 buffer (pH 7) containing 0.005% Tween-20 and 10 μM ZnSO4. […] The test inhibitor was dissolved in dimethylsulfoxide and diluted 1:50 in the assay, resulting in a final concentration range of 20 uM to 0.00063 uM. In a 384-well microplate, the test inhibitor was incubated with the metallo-β-lactamase enzyme and the substrate for 2 hours at 25° C. Fluorescence at 460 nm following excitation at 405 nm was measured. The IC50 value was determined from semi-logarithmic plots of enzyme inhibition versus inhibitor concentration, with a curve generated using a 4-parameter fit.

[1] = test system: Escherichia coli expressing NDM-1 (CLB30016); experiment: Antibiotic potentiation activity: synergistic concentration (MITC95) with imipenem, OD600 growth; type: cell-based; conditions: for Escherichia coli expressing NDM-1 (CLB 30016) MITC95: concentration giving 95% inhibition of bacterial growth
In short: (§1)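 Spectrophotometric growth readings were taken following 22–24 h at 35 °C. Before that, organisms in 1.1× CAMHB were mixed with imipenem, used at 4 μg/ml in assay, and test compound.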

[2] = test system: Klebsiella pneumoniae expressing VIM-1 (IHMA599644); experiment: as above; type: cell-based; conditions: for Klebsiella pneumoniae expressing VIM-1 (IHMA 599644) MITC95: concentration giving 95% inhibition of bacterial growth
In short: as §1

[3] = test system: Serratia marcescens expressing IMP-1 (CL5741); experiment: as above; type: cell-based; conditions: for Serratia marcescens expressing IMP-1 (CL5741) MITC95: concentration giving 95% inhibition of bacterial growth
In short: as §1

[4] = NDM-1 enzyme, CCF2-FA substrate
[5] = IMP-1 enzyme, CCF2-FA substrate
[6] = (CLB30016, NDM-1), 95% growth inhibition
[7] = Klebsiella pneumoniae IHMA599644 (VIM-1), 95% growth inhibition
[8] = Serratia marcescens CL5741 (IMP-1), 95% growth inhibition
[9] = NDM-1 enzyme, CCF2-FA fluorescence assay
[10] = IMP-1 enzyme, CCF2-FA fluorescence assay
[11] = VIM-1 enzyme, CCF2-FA fluorescence assay, read-out: VIM-1 IC50
[12] = Escherichia coli expressing NDM-1 (CLB30016), 95% growth inhibition
[13] = Klebsiella pneumoniae expressing VIM-1 (IHMA599644), 95% growth inhibition
[14] = Serratia marcescens expressing IMP-1 (CL5741), 95% growth inhibition
[15] = VIM-1 enzyme, CCF2-FA substrate, read-out: VIM-1 IC50
[16] = fluorescence assay with CCF2-FA substrate
[17] = CLB30016 (NDM-1), 95% inhibition of bacterial growth
[18] = IHMA599644 (VIM-1), 95% inhibition of bacterial growth
[19] = CL5741 (IMP-1), 95% inhibition of bacterial growth
[20] = fluorescence assay with CCF2-FA substrate, read-out: VIM-1 IC50

Sequence of IMP-1 (P52699 whole entry, looked up): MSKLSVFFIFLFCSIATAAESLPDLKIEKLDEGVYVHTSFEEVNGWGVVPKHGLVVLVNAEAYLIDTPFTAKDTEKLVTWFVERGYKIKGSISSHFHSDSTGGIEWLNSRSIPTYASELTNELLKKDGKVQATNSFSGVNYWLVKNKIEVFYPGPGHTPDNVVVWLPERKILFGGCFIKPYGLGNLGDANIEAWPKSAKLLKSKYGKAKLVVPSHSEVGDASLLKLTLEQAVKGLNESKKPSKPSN
Sequence of NDM-1 (C7C422 whole entry, looked up, species assumed): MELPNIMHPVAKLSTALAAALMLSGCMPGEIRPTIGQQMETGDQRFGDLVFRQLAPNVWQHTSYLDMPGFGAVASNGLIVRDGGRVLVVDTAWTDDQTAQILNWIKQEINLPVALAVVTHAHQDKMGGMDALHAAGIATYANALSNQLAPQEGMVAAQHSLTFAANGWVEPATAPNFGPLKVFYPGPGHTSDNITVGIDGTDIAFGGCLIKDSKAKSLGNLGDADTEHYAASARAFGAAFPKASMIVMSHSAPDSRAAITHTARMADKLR

| SMILES | IC50 (NDM-1; [4]) | IC50 (IMP-1; [5]) | Escherichia coli MITC95 [1, 6] | Klebsiella pneumoniae MITC95 [2, 7] | Serratia marcescens MITC95 [3, 8] | IC50 (VIM-1; [15]) | IC50 (NDM-1; [16]) | IC50 (IMP-1; [16]) | IC50 (VIM-1; [20]) | further results |
| --- | --- | --- | --- | --- | --- | --- | --- | --- | --- | --- |
| NS(=O)(=O)c1c(C(F)(F)F)ccc(-c2cnc(N3CCNCC3)nc2)c1-c1nnn[nH]1 [Example 706, 3-(2-piperazin-1-ylpyrimidin-5-yl)-2-(1H-tetrazol-5-yl)-6-(trifluoromethyl)benzenesulfon-amide] | 4.52 nM | 12.4 nM | 3.125 µM | 1.563 µM | 6.25 µM |  |  |  |  | IC50 (VIM-1; VIM-1 IC50, VIM-1 enzyme, CCF2-FA substrate): 0.632 nM |
| NS(=O)(=O)c1c(C(F)(F)F)ccc(-c2cccn3cncc23)c1-c1nnn[nH]1 [Example 485, 3-(Imidazo[1,5-a]pyridin-8-yl)-2-(1H-tetrazol-5-yl)-6-(trifluoromethyl)benzenesulfonamide] |  |  |  |  |  |  |  |  |  | IC50 (NDM-1; [9]): 1.57 nM; IC50 (IMP-1; [10]): 4.98 nM; IC50 (VIM-1; [11]): 0.197 nM; Escherichia coli MITC95 [1, 12]: 3.125 µM; Klebsiella pneumoniae MITC95 [2, 13]: 6.25 µM; Serratia marcescens MITC95 [3, 14]: 12.5 µM |
| NC[C@H]1CC[C@H](c2ccc(CC3CCNCC3)c(S(N)(=O)=O)c2-c2nn[nH]n2)CC1 [Example 589, 3-((1r,4r)-4-(aminomethyl)cyclohexyl)-6-(piperidin-4-ylmethyl)-2-(2H-tetrazol-5-yl)benzenesulfonamide] | 8.75 nM | 146 nM | 1.172 µM | 9.375 µM | 4.688 µM | 93.9 nM |  |  |  |  |
| Cc1cc(CNCc2ccc(-c3cccc(S(N)(=O)=O)c3-c3nnn[nH]3)cc2)n[nH]1 [Example 354, 4′-({[(5-methyl-1H-pyrazol-3-yl)methyl]amino}methyl)-2-(1H-tetrazol-5-yl)biphenyl-3-sulfonamide] |  |  |  |  |  |  |  |  |  | IC50 (NDM-1; [9]): 7.33 nM; IC50 (IMP-1; [10]): 16.4 nM; IC50 (VIM-1; [11]): 325 nM; Escherichia coli MITC95 [1, 12]: 2.344 µM; Klebsiella pneumoniae MITC95 [2, 13]: 200 µM; Serratia marcescens MITC95 [3, 14]: 2.344 µM |
| NC[C@H]1CC[C@H](c2ccc(CC3CCNCC3)c(S(N)(=O)=O)c2-c2nn[nH]n2)CC1 [Example 590, 3-((1r,4r)-4-(aminomethyl)cyclohexyl)-6-(piperidin-4-ylmethyl)-2-(2H-tetrazol-5-yl)benzenesulfonamide] | 8.27 nM | 24.5 nM | 1.172 µM | 2.344 µM | 2.344 µM | 8.35 nM |  |  |  |  |
| Nc1ncnc2cc(-c3ccc(C(F)(F)F)c(S(N)(=O)=O)c3-c3nnn[nH]3)ccc12 [Example 749, 3-(4-aminoquinazolin-7-yl)-2-(1H-tetrazol-5-yl)-6-(trifluoromethyl)benzenesulfon-amide] |  |  |  |  |  |  | 2.35 nM | 4.12 nM |  | IC50 (VIM-1; VIM-1 IC50, fluorescence assay with CCF2-FA substrate): 0.262 nM; Escherichia coli MITC95 [1, 17]: 3.125 µM; Klebsiella pneumoniae MITC95 [2, 18]: 6.25 µM; Serratia marcescens MITC95 [3, 19]: 12.5 µM |
| CNC1CC(N2CC(c3ccc(-c4ccc(C(F)(F)F)c(S(N)(=O)=O)c4-c4nnn[nH]4)cc3)C2)C1 (stereo not drawn) [Example 815, 4′-{1-[3-(methylamino)cyclobutyl]azetidin-3-yl}-2-(1H-tetrazol-5-yl)-4-(trifluoromethyl)biphenyl-3-sulfonamide] |  |  |  |  |  |  | 4.84 nM | 6.01 nM | 18 nM | Escherichia coli MITC95 [1, 17]: 1.563 µM; Klebsiella pneumoniae MITC95 [2, 18]: 100 µM; Serratia marcescens MITC95 [3, 19]: 3.125 µM |
| NS(=O)(=O)c1nccc(N2CCC(N3CCOCC3)CC2)c1-c1nnn[nH]1 [Example 239, 4-(4-morpholin-4-ylpiperidin-1-yl)-3-(1H-tetrazol-5-yl)pyridine-2-sulfonamide] |  |  |  |  |  |  | 383 nM | 3710 nM | 945 nM | Escherichia coli expressing NDM-1 (CLB 30016) MITC95 [1]: 1.563 µM; Klebsiella pneumoniae expressing VIM-1 (IHMA 599644) MITC95 [2]: 50 µM; Serratia marcescens expressing IMP-1 (CL5741) MITC95 [3]: 50 µM |
| Nc1ncc(-c2ccc(C(F)(F)F)c(S(N)(=O)=O)c2-c2nnn[nH]2)cc1F [Example 476, 3-(6-amino-5-fluoro-3-pyridyl)-2-(1H-tetrazol-5-yl)-6-(trifluoromethyl)benzenesulfonamide] |  |  |  |  |  |  |  |  |  | IC50 (NDM-1; [9]): 1.79 nM; IC50 (IMP-1; [10]): 3.98 nM; IC50 (VIM-1; [11]): 0.263 nM; Escherichia coli MITC95 [1, 12]: 1.563 µM; Klebsiella pneumoniae MITC95 [2, 13]: 1.563 µM; Serratia marcescens MITC95 [3, 14]: 0.5859 µM |
| NS(=O)(=O)c1c(C(F)(F)F)ccc(-c2ccc(N3CCNCC3)cc2)c1-c1nnn[nH]1 [Example 717, 4′-piperazin-1-yl-2-(1H-tetrazol-5-yl)-4-(trifluoromethyl)biphenyl-3-sulfonamide] | 1.64 nM | 2.62 nM | 1.563 µM | 3.125 µM | 3.125 µM | 0.598 nM |  |  |  |  |
| NS(=O)(=O)c1cccc(-c2cccc3c2NCCC3)c1-c1nnn[nH]1 [Example 121, 3-(1,2,3,4-tetrahydroquinolin-8-yl)-2-(1H-tetrazol-5-yl)benzenesulfonamide] |  |  |  |  |  |  | 7.37 nM | 373 nM | 187 nM | Escherichia coli expressing NDM-1 (CLB 30016) MITC95 [1]: 3.125 µM; Klebsiella pneumoniae expressing VIM-1 (IHMA 599644) MITC95 [2]: >200 µM; Serratia marcescens expressing IMP-1 (CL5741) MITC95 [3]: 25 µM |
| NS(=O)(=O)c1c(C(F)(F)F)ccc(-c2cccc3c2CNC3=O)c1-c1nn[nH]n1 [Example 525, 3-(1-Oxoisoindolin-4-yl)-2-(2H-tetrazol-5-yl)-6-(trifluoromethyl)benzenesulfonamide] | 0.541 nM | 6.85 nM | 3.125 µM | 4.688 µM | 12.5 µM | 0.0897 nM |  |  |  |  |
| N#Cc1ccccc1Cc1cccc(S(N)(=O)=O)c1-c1nnn[nH]1 [Example 166, 3-(2-cyanobenzyl)-2-(1H-tetrazol-5-yl)benzenesulfonamide] |  |  |  |  |  |  | 6.89 nM | 74.5 nM | 18.8 nM | Escherichia coli expressing NDM-1 (CLB 30016) MITC95 [1]: 2.344 µM; Klebsiella pneumoniae expressing VIM-1 (IHMA 599644) MITC95 [2]: 100 µM; Serratia marcescens expressing IMP-1 (CL5741) MITC95 [3]: 3.906 µM |
| NC(=O)c1ccc2cc(-c3cccc(S(N)(=O)=O)c3-c3nn[nH]n3)ccc2n1 [Example 288, 6-(3-sulfamoyl-2-(2H-tetrazol-5-yl)phenyl)quinoline-2-carboxamide] |  |  |  |  |  |  |  |  |  | IC50 (NDM-1; [9]): 1.31 nM; IC50 (IMP-1; [10]): 88.9 nM; IC50 (VIM-1; [11]): 9.78 nM; Escherichia coli MITC95 [1, 12]: 1.563 µM; Klebsiella pneumoniae MITC95 [2, 13]: 75 µM; Serratia marcescens MITC95 [3, 14]: 9.375 µM |
| NS(=O)(=O)c1c(C(F)(F)F)ccc(-c2cccc3c2ccc[n+]3[O-])c1-c1nn[nH]n1 [Example 514, 5-(3-Sulfamoyl-2-(2H-tetrazol-5-yl)-4-(trifluoromethyl)phenyl)quinoline 1-oxide] | 1.15 nM | 6.08 nM | 3.125 µM | 9.375 µM | 1.172 µM | 0.138 nM |  |  |  |  |
| NS(=O)(=O)c1c(C(F)(F)F)ccc(-c2ccc3c(c2)CCNC3)c1-c1nnn[nH]1 [Example 721, 3-(1,2,3,4-tetrahydroisoquinolin-6-yl)-2-(1H-tetrazol-5-yl)-6-(trifluoromethyl)benzenesulfon-amide] | 3.02 nM | 9.18 nM | 6.25 µM | 1.563 µM | 6.25 µM | 0.807 nM |  |  |  |  |
| CC(C)c1cccc(S(N)(=O)=O)c1-c1nnn[nH]1 [Example 156, 3-isopropyl-2-(1H-tetrazol-5-yl)benzenesulfonamide] |  |  |  |  |  |  | 13.1 nM | 508 nM | 391 nM | Escherichia coli expressing NDM-1 (CLB 30016) MITC95 [1]: 0.5859 µM; Klebsiella pneumoniae expressing VIM-1 (IHMA 599644) MITC95 [2]: 50 µM; Serratia marcescens expressing IMP-1 (CL5741) MITC95 [3]: 9.375 µM |
| NC1CCC(c2ccc(CC3CCNCC3)c(S(N)(=O)=O)c2-c2nn[nH]n2)CC1 (stereo not drawn) [Example 839, 3-(4-aminocyclohexyl)-6-(piperidin-4-ylmethyl)-2-(2H-tetrazol-5-yl)benzenesulfonamide] |  |  |  |  |  |  | 56.9 nM | 359 nM | 19.3 nM | Escherichia coli MITC95 [1, 17]: 3.125 µM; Klebsiella pneumoniae MITC95 [2, 18]: 6.25 µM; Serratia marcescens MITC95 [3, 19]: 6.25 µM |
| NS(=O)(=O)c1c(C(F)(F)F)ccc(-c2ccc3c(c2)CNC3=O)c1-c1nnn[nH]1 [Example 746, 3-(1-oxo-2,3-dihydro-1H-isoindol-5-yl)-2-(1H-tetrazol-5-yl)-6-(trifluoromethyl)benzenesulfon-amide] |  |  |  |  |  |  | 2.27 nM | 2.59 nM | 0.234 nM | Escherichia coli MITC95 [1, 17]: 6.25 µM; Klebsiella pneumoniae MITC95 [2, 18]: 6.25 µM; Serratia marcescens MITC95 [3, 19]: 6.25 µM |
